In article PMC10970924 (Life, 2024):
Marks after values point to notes of the source that are not given here.

Assays:
[1] = Neutralization of the ABTS radical; details: for EC50: 37 °C, 15 min, 738 nm, read-out: EC50 of half-maximal ABTS radical inhibition; for Trolox Equivalent Antioxidant Capacity (TEAC): ABTS radical neutralization, relative to Trolox
Procedure: Initially, an ABTS solution was prepared in water at a concentration of 7 mM. Subsequently, the radical cation ABTS^•+ was generated by mixing the original ABTS solution with 2.45 mM ammonium persulfate at a 1:1 ratio. This mixture was then allowed to stand in the dark at room temperature for 12–16 h before use. The diluted ABTS^•+ solution was prepared in a methanol/water mixture (1:1) reaching an optical density of 0.7 units at 738 nm (~0.7 mM). Next, various concentrations of compounds (ranging from 1000, 500, 250, 125, 62.5, 31.2, 15.6, to 7.8 μM) in a volume of 130 µL in a methanol/water mixture (1:1) were mixed with the ABTS radical cation solution (~0.7 mM) in a volume of 130 µL. The mixture was then incubated at 37 °C in a water bath for 15 min. The optical density was measured at 738 nm using the Infinite M200 PRO (TECAN, Zürich, Switzerland) plate reader. The percentage inhibition of ABTS absorption relative to the control was calculated. A percent inhibition vs. antioxidant concentration graph was plotted and the concentration of the antioxidant that suppresses the optical density of the ABTS radical by 50% (EC50) was determined. The Trolox Equivalent Antioxidant Capacity (TEAC) was also calculated.

[2] = tested on: porcine neuronal tubulin; assay: Tubulin polymerization assay (Cytoskeleton kit); format: biochemical; details: effector 10 µM; for Maximum Initial Rate of Polymerization V Max: tubulin 3 mg/mL, 37 °C
Procedure: To assess the effect of the test compounds on tubulin polymerization, a test kit from Cytoskeleton was used. The plate was pre-warmed to 37 °C for 20 min before starting the assay. Then, 10 µL of the compound of interest, at a 10-fold concentration in an assay buffer, was pipetted into the plate. For comparison, paclitaxel, a polymerization enhancer, and vinblastine, a tubulin polymerization inhibitor, were used. Both effectors were used at a concentration of 10 µM. The assay buffer served as a control. The plate was then incubated at 37 °C for 2 min, after which 100 µL of the diluted tubulin solution (containing 3 mg/mL of tubulin in 80 mM PIPES pH 6.9, 2 mM MgCl2, 0.5 mM EGTA, 1 mM GTP, and 7% glycerol) was added. The plate was then immediately placed in the plate reader. Absorbance was measured at 340 nm every minute for 61 readings on a Varioskan LUX (Thermo Scientific, Waltham, MA, USA) plate reader.

Row | EC50 [1] [µM] | Compound | Trolox Equivalent Antioxidant Capacity (TEAC) [1] | Maximum Initial Rate of Polymerization V Max [2] | other results
1 | 15.2 ± 4.8 | O=C1O[C@H]([C@@H](O)CO)C(O)=C1O [Ascorbic acid] | 1.03 |  | 
2 | 3.2 ± 1.6 | O=c1c(O)c(-c2ccc(O)c(O)c2)oc2cc(O)cc(O)c12 [Quercetin] | 4.9 |  | 

Continued, molecule first:

Row | Compound | EC50 [1] [µM] | Trolox Equivalent Antioxidant Capacity (TEAC) [1] | Maximum Initial Rate of Polymerization V Max [2] | other results
3 | CC(=O)O[C@H]1C(=O)[C@@]2(C)[C@H]([C@H](OC(=O)c3ccccc3)[C@]3(O)C[C@H](OC(=O)[C@H](O)[C@@H](NC(=O)c4ccccc4)c4ccccc4)C(C)=C1C3(C)C)[C@]1(OC(C)=O)CO[C@@H]1C[C@@H]2O [Paclitaxel, paclitaxel] |  |  | 8 * mOD/Min | Vmax, times higher than in the control reaction [2]: 1.2; Maximum Initial Rate of Polymerization V Max ([2]; listed as paclitaxel): 8.0 mOD/Min
4 | Cc1c(C)c2c(c(C)c1O)CCC(C)(C(=O)O)O2 (stereo not drawn) [Trolox] | 15.7 ± 3.4 | 1.0 |  | 
5 | CC[C@]1(O)C[C@@H]2CN(CCc3c([nH]c4ccccc34)[C@@](C(=O)OC)(c3cc4c(cc3OC)N(C)[C@H]3[C@@](O)(C(=O)OC)[C@H](OC(C)=O)[C@]5(CC)C=CCN6CC[C@]43[C@@H]65)C2)C1 [Vinblastine, vinblastine] |  |  | 2.4 * mOD/Min | Inhibition of tubulin polymerization, fold [2]: 3; Maximum Initial Rate of Polymerization V Max ([2]; listed as vinblastine): 2.4 mOD/Min
